Assay results: article PMC9317481, “Design and Synthesis of New Hydantoin Acetanilide Derivatives as Anti-NSCLC Targeting EGFR^L858R/T790M Mutations” (Pharmaceuticals, 2022)

Experiments:
A549 cells [1] = assay: Wound healing assay in A549 cells; type: cell-based, human; settings: 0.5, 1 or 2 µM, 72 h
Procedure: Various articles have highlighted the role of EGFR in the migration of tumor cells. Accordingly, the migratory effects of 5a in A549 cells were assessed using a wound healing assay.
Wound healing assay of 5a was performed using CytoSelect™ 24-well Wound Healing Assay kit (Cat. # CBA-120, Cell Biolabs Inc., Cambridge, UK) per manufacturer’s instructions. In brief, the 24-well plate wound healing inserts were allowed to warm up at room temperature for 10 min., then to each well, 500 µL of A549 cells suspension ([…]) in media containing 10% fetal bovine serum (FBS) was added. Cells were kept in a cell culture incubator until a monolayer formed. Carefully, the insert was removed from the well. The media were slowly aspirated and discarded from the wells. The wells were washed with media to remove dead cells and debris. Finally, the media were added to wells to keep cells hydrated, then wells were visualized under a light microscope. Media containing the indicated concentrations of compound 5a (0.5, 1, or 2 µM) were then added into the wells for 72 h. the wound closure was monitored with a light microscope. The percent closure of the cells into the wound field was measured.

EGFR phosphorylation = target: T1, EGFR phosphorylation (Homo sapiens, UniProt P00533); assay: Western blot of EGFR phosphorylation expression in A549 cells; type: cell-based
T1 construct: A549 (harbor EGFR^WT); endogenous in cells; host or cells: A549
Procedure: In addition, the obtained data were attuned to β-actin expression to exclude the deviations further.
The western blot experiment was performed according to the same procedure described earlier.

EGFR^WT = EGFR^WT (Homo sapiens, UniProt P00533); assay: EGFR kinase assay (wild type)
A549 cells [2] = assay: MTT antiproliferative assay, A549; settings: Homo sapiens, A549, read-out: IC50 (µM) A549
A549 cells [3] = assay: Annexin V-FITC/propidium iodide apoptosis assay in A549 cells; type: cell-based, human; settings: IC50 concentration
Procedure: (§1) The active hydantoin derivative 5a was further investigated for its effect on cell cycle progression and the induction of apoptosis in A549 cells. Exposure of A549 cells to 5a at its IC50 value led to an interference with the normal cell cycle distribution of the cell (Figure 5). […] Meanwhile, 5a was evaluated for its ability to induce apoptosis in A549 cells by staining with propidium iodide and Annexin V-FITC.
(§2) Cell cycle analysis and Annexin V-FITC apoptosis assay were performed as described earlier.
Figure 6 Apoptotic effect of compound 5a on A549 cells. Representative cytograms of apoptotic A549 cells stimulated with 5a or DMSO as a negative control for 24 h. TEXT PRINTED IN THE PICTURE: Control: Necrosis 0.94%; Late apoptosis 0.26%; Early apoptosis 0.41% | 5a: Necrosis 11.59%; Late apoptosis 19.89%; Early apoptosis 3.77%

EGFR^T790M = EGFR^T790M (Homo sapiens, UniProt P00533, T790M); assay: EGFR kinase assay (T790M)
EGFR^L858R = EGFR^L858R (Homo sapiens, UniProt P00533, L858R); assay: EGFR kinase assay (L858R)
ERK = ERK enzyme assay (ELISA) in A549 cells; type: cell-based, human; settings: read-out: Enzymatic Inhibition, IC50, (nM) ERK
Procedure: ERK ELISA Kit (Cat. # E4317-100, BioVision, Inc., Waltham, MA, USA) was used for the in vitro quantitative determination of Human ERK. Firstly, the plate was washed 2 times with Wash Solution before the standard, sample, and control wells were added. A total of 100 μL of each standard or sample was added into appropriate wells. […] The cover was removed and the plate content was discarded without washing or letting the wells completely dry. A total of 0.1 mL of Biotin-detection antibody work solution was added into the above wells. […] The solution was discarded and washed 3 times with Wash Solution. It was washed by filling each well with Wash Buffer (350 μL) using a multi-channel pipette or auto-washer. It was soaked for 1–2 min, and then all residual wash-liquid was removed from the wells by aspiration. After the last wash, any remaining wash buffer was removed by aspirating or decanting. The plate was clapped on absorbent filter papers or other absorbent materials. […] The solution was discarded and washed 5 times with wash solution as mentioned before. […] A total of 50 μL of Stop Solution was added to each well. The result was read at 450 nm within 20 min.

H1975 cells = assay: MTT antiproliferative assay, H1975; settings: Homo sapiens, NCI-H1975, read-out: IC50 (µM) H1975
[4] = tested on: A549, H1975, and PC9 cell lines; assay: MTT antiproliferative assay, average of the three NSCLC cell lines; settings: Homo sapiens, read-out: IC50 (µM) Average
PC9 cells = assay: MTT antiproliferative assay, PC9; settings: Homo sapiens, PC-9, read-out: IC50 (µM) PC9
Akt = Akt enzyme assay (Phospho-Ser473 ELISA) in A549 cells; type: cell-based, human; settings: read-out: Enzymatic Inhibition, IC50, (nM) Akt
Procedure: Akt expression level was assayed using the Phospho Sandwich Akt (Phospho-Ser473) ELISA Kit (Cat. # MBS9511022, MyBioSource, San Diego, CA, USA) containing the components necessary for the semi-quantitative determination of Akt concentrations within experimental cell lysate samples. The assay was performed according to company protocols: the lysates were diluted with assay diluent and 100 μL/well was dispensed, wrapped with parafilm, and incubated for 2 h. They were shaken with RT or overnight at 4 °C. The plate was washed 3 times with 1× Wash Buffer 300 μL/well with a vacuum-based plate washer. Then, the plate was stricken on absorbent paper to remove as much residual liquid as possible. The Detection Antibody was diluted to 1× and 100 μL/well was dispensed, wrapped with parafilm, and incubated on a shaker for 2 hrs at RT, and the washing step was repeated. Streptavidin-HRP was diluted to 1× and 100 μL/well was dispensed, wrapped with parafilm, and incubated on a shaker for 30 min at RT. Ready-to-use substrate was brought to RT and 100 μL/well was dispensed and the reaction was allowed to incubate on an orbital shaker for 20–30 min. The reaction was stopped with stop solution 100 μL/well. The wells turned from blue to yellow and were read at 450 nm.

WI-38 normal cells = assay: MTT cytotoxicity on normal fibroblast WI-38 cells; settings: for IC50: Homo sapiens, WI-38, read-out: WI-38, IC50 (µM); for fold superior to the reference erlotinib on WI-38: ratio of WI-38 IC50 versus erlotinib
Procedure: The new prepared candidates 5a–5n were evaluated for their antitumor activities against four selected cell lines, the adenocarcinomic human alveolar basal epithelial cells NCI-A549, NCI-H1975, human pulmonary adenocarcinoma PC9, and the fibroblast-like fetal lung cells WI-38 (purchased from American Type Culture Collection (ATCC), United States of America), using an MTT assay [26], as described earlier [27].

A549 cells [5] = assay: Cell cycle analysis by flow cytometry in A549 cells; type: cell-based, human; settings: 5a at its IC50 value
Procedure: as §1, §2
Figure 5 Compound 5a arrested the cell cycle at the sub G1 and S phases in A549 cells. Representative cell cycle distribution data are shown by flow cytometric analysis upon incubation with 5a or DMSO as a negative control for 24 h.

[6] = A549 cells treated by 5a, Western blot

IC50 (A549 cells [2])	IC50 (H1975 cells)	IC50 [4]	IC50 (PC9 cells)	melting point	Compound	also measured
2.26 ± 0.12 µM	1.94 ± 0.25 µM	4.79 µM	10.2 ± 0.53 µM	–	COc1ccc(NC(=O)CN2C(=O)NC(C)(c3ccccc3)C2=O)cc1OC (stereo not shown) [5a, N -(3,4-dimethoxyphenyl)-2-(4-methyl-2,5-dioxo-4-phenylimidazolidin-1-yl)acetamide]	wound closure and migration of A549 cells (A549 cells [1]): reduced the wound closure and the migration of A549 cells substantially in a dose-dependent manner; OD (EGFR) (EGFR phosphorylation; [6]): 0.79; OD (pEGFR) (EGFR phosphorylation; [6]): 0.33; fold decrease in expression level of EGFR phosphorylation compared to control (EGFR phosphorylation; A549 cells, 0.03 µM of 5a, normalised to β-actin): 2.5 fold; IC50 (EGFR^WT): 0.03 ± 0.005 µM; elevation of early apoptotic cells compared to the negative control (A549 cells [3]): 77 folds; elevation of late apoptotic cells compared to the negative control (A549 cells [3]): 9 folds; Early apoptosis (A549 cells [3]; 24 h): 3.77%; Late apoptosis (A549 cells [3]; 24 h): 19.89%; Necrosis (A549 cells [3]; 24 h): 11.59%; IC50 (EGFR^T790M): 0.09 ± 0.002 µM; IC50 (EGFR^L858R): 0.05 ± 0.001 µM; IC50 (ERK): 25.8 ± 41 nM; IC50 (Akt): 33.8 ± 0.55 nM; IC50 (WI-38 normal cells): 49.3 ± 2.75 µM; fold superior to the reference erlotinib on WI-38 (WI-38 normal cells): 2.6 fold; boost of cells at pre-G1 compared to the control (A549 cells [5]): 22 folds; cells at S phase (A549 cells [5]; 24 h): 40.40%; cells at sub G1 phase (A549 cells [5]; 24 h): 35.25%
14.5 ± 0.92 µM	8.2 ± 0.45 µM	9.29 µM	5.12 ± 0.56 µM	122 to 125 °C	CC1(c2ccccc2)NC(=O)N(CC(=O)Nc2ccc(S(N)(=O)=O)cc2)C1=O (stereo not shown) [5b, N-(4-aminosulphonylphenyl)-2-(4-methyl-2,5-dioxo-4-phenylimidazolidin-1-yl)acetamide]	–
91.4 ± 5.75 µM	55.3 ± 3.01 µM	56 µM	21.3 ± 2.31 µM	163 to 166 °C	COc1ccc(NC(=O)CN2C(=O)NC(C)(c3ccccc3)C2=O)cc1Cl (stereo not shown) [5c, N-(3-chloro-4-methoxyphenyl)-2-(4-methyl-2,5-dioxo-4-phenylimidazolidin-1-yl)acetamide]	–
35.8 ± 2.26 µM	11.9 ± 0.65 µM	18.4 µM	7.5 ± 0.81 µM	170 to 173 °C	COc1ccc(C)cc1NC(=O)CN1C(=O)NC(C)(c2ccccc2)C1=O (stereo not shown) [5d, N-(2-methoxy-5-methylphenyl)-2-(4-methyl-2,5-dioxo-4-phenylimidazolidin-1-yl)acetamide]	–
7.19 ± 0.45 µM	9.34 ± 0.51 µM	6.35 µM	2.52 ± 0.27 µM	226 to 228 °C	CC1(c2ccccc2)NC(=O)N(CC(=O)Nc2ccc(F)cc2)C1=O (stereo not shown) [5e, N-(4-fluorophenyl)-2-(4-methyl-2,5-dioxo-4-phenylimidazolidin-1-yl)acetamide]	–
1.94 ± 0.12 µM	1.38 ± 0.07 µM	2.57 µM	4.4 ± 0.48 µM	153 to 155 °C	CC1(c2ccccc2)NC(=O)N(CC(=O)Nc2ccccc2F)C1=O (stereo not shown) [5f, N-(2-fluorophenyl)-2-(4-methyl-2,5-dioxo-4-phenylimidazolidin-1-yl)acetamide]	IC50 (EGFR^WT): 0.06 ± 0.011 µM; IC50 (EGFR^T790M): 0.26 ± 0.005 µM; IC50 (EGFR^L858R): 0.17 ± 0.003 µM; IC50 (WI-38 normal cells): 42.5 ± 2.32 µM; fold superior to the reference erlotinib on WI-38 (WI-38 normal cells): 2.3 fold
37.6 ± 2.37 µM	6.84 ± 0.37 µM	18.7 µM	11.5 ± 1.25 µM	182 to 185 °C	CC1(c2ccccc2)NC(=O)N(CC(=O)Nc2cccc(F)c2)C1=O (stereo not shown) [5g, N-(3-fluorophenyl)-2-(4-methyl-2,5-dioxo-4-phenylimidazolidin-1-yl)acetamide]	–
11.9 ± 0.75 µM	21.3 ± 1.16 µM	16.2 µM	15.4 ± 1.67 µM	195 to 198 °C	CC1(c2ccccc2)NC(=O)N(CC(=O)Nc2ccc(F)c(F)c2)C1=O (stereo not shown) [5h, N-(3,4-difluorophenyl)-2-(4-methyl-2,5-dioxo-4-phenylimidazolidin-1-yl)acetamide]	–
0.73 ± 0.05 µM	14 ± 0.76 µM	6.93 µM	6.06 ± 0.35 µM	205 to 210 °C	CC1(c2ccccc2)NC(=O)N(CC(=O)Nc2ccc(F)c(F)c2F)C1=O (stereo not shown) [5i, N-(2,3,4-trifluorophenyl)-2-(4-methyl-2,5-dioxo-4-phenylimidazolidin-1-yl)acetamide]	–
4.11 ± 0.26 µM	30.9 ± 1.68 µM	15 µM	9.97 ± 1.08 µM	143 to 146 °C	COc1ccc(NC(=O)CN2C(=O)NC(C)(c3ccccc3)C2=O)c(C)c1 (stereo not shown) [5j, N-(4-methoxy-2-methylphenyl)-2-(4-methyl-2,5-dioxo-4-phenylimidazolidin-1-yl)acetamide]	–
68.6 ± 4.32 µM	5.84 ± 0.32 µM	25.9 µM	3.25 ± 0.35 µM	170 to 173 °C	CC1(c2ccccc2)NC(=O)N(CC(=O)Nc2ccc(F)c(Cl)c2)C1=O (stereo not shown) [5k, N-(3-chloro-4-fluorophenyl)-2-(4-methyl-2,5-dioxo-4-phenylimidazolidin-1-yl)acetamide]	–
2.37 ± 0.15 µM	43.8 ± 2.39 µM	17.6 µM	6.69 ± 0.73 µM	153 to 155 °C	CCOc1ccc(NC(=O)CN2C(=O)NC(C)(c3ccccc3)C2=O)cc1 (stereo not shown) [5l, N-(4-ethoxyphenyl)-2-(4-methyl-2,5-dioxo-4-phenylimidazolidin-1-yl)acetamide]	–
12.3 ± 0.78 µM	2.27 ± 0.12 µM	14.3 µM	28.3 ± 3.08 µM	85 to 90 °C	COc1ccccc1NC(=O)CN1C(=O)NC(C)(c2ccccc2)C1=O (stereo not shown) [5m, N-(2-methoxyphenyl)-2-(4-methyl-2,5-dioxo-4-phenylimidazolidin-1-yl)acetamide]	–
0.42 ± 0.03 µM	18.8 ± 1.02 µM	8.7 µM	6.87 ± 0.75 µM	148 to 151 °C	COc1cccc(NC(=O)CN2C(=O)NC(C)(c3ccccc3)C2=O)c1 (stereo not shown) [5n, N-(3-methoxyphenyl)-2-(4-methyl-2,5-dioxo-4-phenylimidazolidin-1-yl)acetamide]	–
7.81 ± 0.43 µM	9.7 ± 0.53 µM	11.3 µM	16.3 ± 0.84 µM	–	C#Cc1cccc(Nc2ncnc3cc(OCCOC)c(OCCOC)cc23)c1 [Erlotinib, erlotinib, reference compound]	IC50 (ERK): 17.5 ± 0.18 nM; IC50 (Akt): 25.4 nM; IC50 (WI-38 normal cells): 18.6 ± 1.24 µM
